Measured values taken from patent US20060270640A1, “Method of preventing, medicating, and/or treating hypocalcemia of domestic mammal” (Mercian Corporation, priority 2004, published 2006).

How the values were obtained:
[1] = Intravaginal administration of VitAD3E to cows, biochemical changes in blood (Comparative Example 1); conditions: intravaginal VitA 10,000,000 IU + VitD3 5,000,000 IU + VitE 920 IU in 8 mL with 20% ethanol per cow; two Holstein cows
Procedure: Vitamin A, vitamin D3, and vitamin E were administered to the vaginal cavities of cows to observe biochemical changes in blood after administration in the same manner as in Example 1 except that test drugs, test contents, and biochemical examination items of blood were as described in the following (1) to (3).
• Vitamin A (VitA; bulk for drug production, liquid); • Vitamin D3 (VitD3; bulk for drug production, liquid); and • Vitamin E (VitE; bulk for drug production, liquid). (2) Test Contents • VitAD3E test: intravaginal administration of VitA (10,000,000 IU)+VitD3 (5,000,000 IU)+VitE (920 IU) brought up to 8 mL per cow with 20% ethanol. (3) Biochemical Examination Items of Blood • Control test: VitA, 25-hydroxyvitamin D3 (25-OHD3), VitE, calcium (Ca), inorganic phosphorus (iP), and magnesium (Mg); and • VitAD3E test: VitA, 25-OHD3, and VitE.
The shifts of VitA, 25-OHD3, and VitE concentrations in blood by the intravaginal administration of VitAD3E were observed by the above-described procedure.

[2] = format: in vivo, cow; conditions: intravaginal 1 μg/kg 1α-VD3; two Holstein cows
Description: Biochemical changes in blood were observed by administering 1α-hydroxyvitamin D3 to the vaginal cavities of cows.
Test animals used were two Holstein dairy cows (Cow A and Cow B) described below. During a test period, the cows were raised by the free grazing of hay (free water drinking) in a field paddock as well as feeding with 2 kg/day of formula feed (64.1% TDN, 13.6% CP, 0.2% Ca, 0.09% Mg, and 1.39% K in DM).
Cow A: 35months old, female, single birth, ovariectomized, 560 kg
Cow B: 34months old, female, single birth, ovariectomized, 580 kg
The following test drug was used: • 1α-hydroxyvitamin D3 (1α-VD3; manufactured by Nisshin Pharma Co., Ltd., powder).
Test contents and schedules were as follows: • 1. Control test: intravaginal administration of 4 mL of 20% ethanol (for 1 week); and • 2. 1α-VD3 test: intravaginal administration of 1 μg/kg (by body weight) of 1α-VD3 dissolved in 4 mL of 20% ethanol (for 2 weeks).
Intravaginal administration was performed by the following procedure:
The above-described reagent was prepared on ice water and then administered, with a 10-mL plastic syringe, to a deep region in the vagina of the test cows previously allowed to urinate and vulva skin was immediately closed with an instant adhesive.
In each test, blood was collected immediately before administration (0 hour) and at 0.5, 1, 2, 3, 6, 12, 24, 48, and 72 hours (hrs) after administration. […]

| Compound | intravaginal absorption of the drug [1] | effect on Ca metabolism [2] |
| --- | --- | --- |
| C=C1CC[C@H](O)C/C1=C/C=C1\CCC[C@]2(C)[C@@H]([C@H](C)CCCC(C)C)CC[C@@H]12 [vitamin D3, Vitamin D3] | No evidence that administered drugs were absorbed from the vaginal wall was confirmed | – |
| C=C1/C(=C\C=C2/CCC[C@]3(C)[C@@H]([C@H](C)CCCC(C)C)CC[C@@H]23)C[C@@H](O)C[C@@H]1O [1α-VD3, 1α-hydroxyvitamin D3] | – | affecting Ca metabolism |
| Vitamin E | No evidence that administered drugs were absorbed from the vaginal wall was confirmed | – |
